Source: patent US7915295B2, “Non-nucleotide reverse transcriptase inhibitors” (priority 2004, dated 2011)

Test system: wild type HIV (HIVIIIB)
Assay: not given
Conditions: read-out: ED50 (the source's name); cited from earlier work
In the case of `O=C(Nc1ccc(Oc2ccccc2)cn1)N[C@@H]1[C@@H]2COc3c(F)ccc(F)c3[C@@H]21` (relative stereo) [Prior art, cis-1-(4,7-difluoro-1,1a,2,7b-tetrahydro-cyclopropa[c]chromen-1-yl)-3-(5-phenoxy-pyridin-2-yl)-urea, reference compound], the EC50 is listed as 7 nM.

Biological target: T1, HIV-1 reverse transcriptase L100I+K103N mutant (Human immunodeficiency virus type 1 group M subtype B, UniProt P03366, K702N/L699I)
T1 construct: made in house; host or cells: E. coli BL21 (DE3)
Assay: HIV-1 reverse transcriptase SPA (scintillation proximity) assay with mutant RT
Format: biochemical
Conditions: K103N double escape mutant
Method: Convenient reverse transcriptase assays use reverse transcriptase bearing key drug escape mutations prepared broadly as described in Unge et al Eur. J. Biochem. 269, 1670-1677 (2002).
For example a K103N mutant is prepared using this methodology and the primers
The L100I/K103 N mutant is prepared by mutation of L100 in the K103N enzyme:
Mutations are done in the HIVRT DH10 clone cDNA cloned into the pET11d expression vector. The mutations are generated by amplification of the mutated DNA with the help of the enzyme Pfu. Cloning was then performed in E. coli TOP10 cells and expression of mutated enzyme was performed in E. coli BL21 (DE3) cells after induction with IPTG.
The HIV-1 reverse transcriptase assay utilized a SPA (scintillation proximity assay) system relying on fluomicrospheres coated with the receptor molecule streptavidine (Flashplates, PerkinElmer Life Science) which is capable of binding radiolabelled ligands in the reaction solution. In the assay, a biotinylated primer (5′-GTC ATA GCT GTT TCC TG-3′) is pre-annealed with a DNA heterogeneous template (synthesized by GENSE) giving a sequence of 5′-CG UCUGGCAUUGCGAGCGGAUAA CM UUU CAC ACA GGA MC AGC UAU GAC-3′ in an RNase free environment. HIV-1 reverse transcriptase (such as L100I+K103N) catalyzed RNA-dependent DNA activity was measured in the presence of 50 mM Tris-HCl pH=8.0, 80 mM KCl, 10 mM MgCl2, 10 mM Dithiothreitol, 5 mg/ml BSA and 0.05% Nonidet P40 where the incorporation of tritium-labeled dGTP (Amersham, 35 Ci/mmol) and 11 uM of dNTP (dATP, dCTP and dTTP) was monitored at room temperature. The dGTP concentration was used at a Km value of 0.25 uM, 10 nM of RNA template was used and mutant RT (such as L100I+K103N) was used at 180 ng/ml in 100 ul reaction volume for 120 min reaction.
Compounds of the invention were assayed for HIV activity against the problematic L100I, K103N mutant in an invitro assay as outlined below. For reference, the closest prior art compound, cis-1-(4,7-difluoro-1,1a,2,7b-tetrahydro-cyclopropa[c]chromen-1-yl)-3-(5-phenoxy-pyridin-2-yl)-urea, example 20 of WO 02/070516 as depicted above, was assayed in the same system.
For `O=C(Nc1ccc(Oc2ccccc2)cn1)N[C@@H]1[C@@H]2COc3c(F)ccc(F)c3[C@@H]21` (relative stereo) [Prior art, cis-1-(4,7-difluoro-1,1a,2,7b-tetrahydro-cyclopropa[c]chromen-1-yl)-3-(5-phenoxy-pyridin-2-yl)-urea, reference compound], the IC50 was 600 nM. Work on `NS(=O)(=O)c1ccc(Oc2ccc(NC(=O)N[C@@H]3[C@@H]4COc5c(F)ccc(F)c5[C@@H]43)nc2)cc1` [Example 1, N-[(1S,1aR,7bR)-4,7-difluoro-1,1a,2,7b-tetrahydrocyclopropa[c]chromen-1-yl]-N′-[5-(4-(sulfonamido)phenoxy)-2-pyridinyl]urea] yielded an IC50 of 29 nM. In the case of `CNC(=O)c1ccc(Oc2ccc(NC(=O)N[C@@H]3[C@@H]4COc5c(F)ccc(F)c5[C@@H]43)nc2)cc1` [Example 2, N-[(1S,1 aR,7bR)-4,7-difluoro-1,1a,2,7b-tetrahydrocyclopropa[c]chromen-1-yl]-N′-[5-(4-(N-methylcarboxyamido)phenoxy)-2-pyridinyl]urea], the IC50 is reported as 26 nM. `CS(=O)(=O)Nc1ccc(Oc2ccc(NC(=O)N[C@@H]3[C@@H]4COc5c(F)ccc(F)c5[C@@H]43)nc2)cc1` [Example 3, N-[(1S,1aR,7bR)-4,7-difluoro-1,1a,2,7b-tetrahydrocyclopropa[c]chromen-1-yl]-N′-[5-(4-(N-methylsulfonamido)phenoxy)-2-pyridinyl]urea] showed an IC50 of 60 nM. Compound `Nc1ccc(Oc2ccc(NC(=O)N[C@@H]3[C@@H]4COc5c(F)ccc(F)c5[C@@H]43)nc2)cc1` [Example 4, N-[(1S,1aR,7bR)-4,7-difluoro-1,1a,2,7b-tetrahydrocyclopropa[c]chromen-1-yl]-N′-[5-(4-aminophenoxy)-2-pyridinyl]urea] has an IC50 of 70 nM. In the case of `CS(=O)(=O)c1ccc(Oc2ccc(NC(=O)N[C@@H]3[C@@H]4COc5c(F)ccc(F)c5[C@@H]43)nc2)cc1` [Example 5, N-[(1S,1aR,7bR)-4,7-difluoro-1,1a,2,7b-tetrahydrocyclopropa[c]chromen-1-yl]-N′-[5-(4-(methylsulfon)phenoxy)-2-pyridinyl]urea], the IC50 is reported as 40 nM. Work on `CNC(=O)c1ccc(Oc2ccc(NC(=O)N[C@@H]3[C@@H]4COc5c(F)ccc(F)c5[C@@H]43)nc2)cn1` [Example 8, 5-({6-[({[(1S,1aR,7bR)-4,7-difluoro-1,1a,2,7b-tetrahydrocyclopropa[c]chromen-1-yl]amino}carbonyl)amino]-3-pyridinyl}oxy)-N-methyl-2-pyridinecarboxamide] yielded an IC50 of 70 nM. In the case of `NC(=O)c1ccc(Oc2ccc(NC(=O)N[C@@H]3[C@@H]4COc5c(F)ccc(F)c5[C@@H]43)nc2)cc1` [Example 9, 4-({6-[({[(1S,1aR,7bR)-4,7-difluoro-1,1a,2,7b-tetrahydrocyclopropa[c]chromen-1-yl]amino}carbonyl)amino]-3-pyridinyl}oxy)benzamide], the IC50 is reported as 28 nM. Work on `NC(=O)c1ccc(Oc2ccc(NC(=O)N[C@@H]3[C@@H]4COc5c(F)ccc(F)c5[C@@H]43)nc2)cn1` [Example 10, 5-({6-[({[(1S,1aR,7bR)-4,7-difluoro-1,1a,2,7b-tetrahydrocyclopropa[c]chromen-1-yl]amino}carbonyl)amino]-3-pyridinyl}oxy)-2-pyridinecarboxamide] yielded an IC50 of 80 nM. `NNC(=O)c1ccc(Oc2ccc(NC(=O)N[C@@H]3[C@H]4COc5c(F)ccc(F)c5[C@H]43)nc2)cc1` [Example 11, N-[(1S,1aS,7bS)-4,7-difluoro-1,1a,2,7b-tetrahydrocyclopropa[c]chromen-1-yl]-N′-{5-[4-(hydrazinocarbonyl)phenoxy]-2-pyridinyl}urea] gave an IC50 of 10 nM. Compound `O=C(Nc1ccc(Oc2ccc(C(=O)NC3CC3)cc2)cn1)N[C@@H]1[C@H]2COc3c(F)ccc(F)c3[C@H]21` [Example 12, 4-({6-[({[(1S,1aS,7bS)-4,7-difluoro-1,1a,2,7b-tetrahydrocyclopropa[c]chromen-1-yl]amino}carbonyl)amino]-3-pyridinyl}oxy)-N-cyclopropylbenzamide] has an IC50 of 27 nM. `CC(=O)Nc1ccc(Oc2ccc(NC(=O)N[C@@H]3[C@H]4COc5c(F)ccc(F)c5[C@H]43)nc2)cc1` [Example 13, N-[4-({6-[({[(1S,1aS,7bS)-4,7-difluoro-1,1a,2,7b-tetrahydrocyclopropa[c]chromen-1-yl]amino}carbonyl)amino]-3-pyridinyl}oxy)phenyl]acetamide] showed an IC50 of 40 nM. `O=C(Nc1ccc(Oc2ccc(-n3cncn3)cc2)cn1)N[C@@H]1[C@@H]2COc3c(F)ccc(F)c3[C@@H]21` [Example 14, N-[(1S,1aR,7bR)-4,7-difluoro-1,1a,2,7b-tetrahydrocyclopropa[c]chromen-1-yl]-N′-{5-[4-(1H-1,2,4-triazol-1-yl)phenoxy]pyridin-2-yl}urea] gave an IC50 of 60 nM.
